ChEMBL document CHEMBL1126190, “3-[4-[1-(6-Fluorobenzo[b]thiophen-3-yl)-4-piperazinyl]butyl]- 2,5,5-trimethyl-4-thiazolidinone: a new atypical antipsychotic agent for the treatment of schizophrenia” (J Med Chem, 1992)

How the values were obtained:
[1] = test system: Rattus norvegicus; test: Compound was evaluated for inhibition of apomorphine-induced stereotypy behavior in rats after intraperitoneal administration.; format: functional; conditions: ip
[2] = test system: Rattus norvegicus; test: Compound was evaluated for intracranial self-stimulation in rat after intraperitoneal administration.; format: functional; conditions: ip
[3] = test system: Rattus norvegicus; test: Compound was evaluated for pole-climb avoidance in rat after peroral administration.; format: functional; conditions: po
[4] = test system: Rattus norvegicus; test: Compound was evaluated for pole-climb avoidance (escape failures) in rat after peroral administration.; format: functional; conditions: po
[5] = target: T1, 5-hydroxytryptamine receptor 1A (Rattus norvegicus, UniProt P19327); test: Compound was evaluated for in vitro binding affinity towards serotonin 5-hydroxytryptamine 1A receptor receptor in rat hippocampus using [3H]8-OH-DPAT as radioligand; format: tissue-based
T1 sequence (P19327 whole entry): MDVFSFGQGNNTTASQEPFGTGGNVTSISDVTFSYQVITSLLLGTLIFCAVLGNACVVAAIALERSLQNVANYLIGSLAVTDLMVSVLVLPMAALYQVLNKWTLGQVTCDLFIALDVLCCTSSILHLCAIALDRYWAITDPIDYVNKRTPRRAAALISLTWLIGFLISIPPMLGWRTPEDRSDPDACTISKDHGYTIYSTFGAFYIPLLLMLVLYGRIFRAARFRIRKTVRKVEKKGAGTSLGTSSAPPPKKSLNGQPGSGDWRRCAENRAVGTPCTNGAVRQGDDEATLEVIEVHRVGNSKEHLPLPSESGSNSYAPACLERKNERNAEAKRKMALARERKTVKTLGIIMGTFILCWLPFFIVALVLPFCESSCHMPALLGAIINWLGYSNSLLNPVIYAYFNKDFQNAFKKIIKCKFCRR

[6] = target: Serotonin 2 (5-HT2) receptor (Rattus norvegicus, UniProt P30994+P08909+P14842); test: Compound was evaluated for in vitro binding affinity towards serotonin 5-hydroxytryptamine 2 receptor in rat cortex using [3H]- spiperone as radioligand
[7] = target: D(1A) dopamine receptor (Rattus norvegicus, UniProt P18901); test: Compound was evaluated for in vitro binding affinity towards Dopamine receptor D1 in striatum using [3H]- SCH 23390 as radioligand; format: tissue-based
Sequence of D(1A) dopamine receptor (P18901 whole entry): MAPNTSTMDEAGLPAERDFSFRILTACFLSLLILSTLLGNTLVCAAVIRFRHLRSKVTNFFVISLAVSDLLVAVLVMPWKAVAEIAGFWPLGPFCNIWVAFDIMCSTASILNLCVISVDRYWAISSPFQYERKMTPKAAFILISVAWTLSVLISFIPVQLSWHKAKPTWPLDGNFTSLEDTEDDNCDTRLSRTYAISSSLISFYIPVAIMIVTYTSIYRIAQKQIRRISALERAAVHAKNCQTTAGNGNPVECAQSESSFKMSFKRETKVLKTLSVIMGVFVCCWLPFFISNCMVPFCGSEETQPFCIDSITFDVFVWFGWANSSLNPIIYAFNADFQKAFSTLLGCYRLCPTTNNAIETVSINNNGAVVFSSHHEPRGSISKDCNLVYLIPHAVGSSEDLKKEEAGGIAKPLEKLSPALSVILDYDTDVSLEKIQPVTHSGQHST

[8] = test system: Mus musculus; test: Compound was evaluated for inhibition of apomorphine-induced climbing in mouse after intraperitoneal administration.; format: functional; conditions: ip
[9] = test system: Mus musculus; test: Compound was evaluated for inhibition of apomorphine-induced climbing in mouse after peroral administration.; format: functional; conditions: po

| Ki [5] | Ki [6] | Ki [7] | SMILES | ED50 [1] | ED50 [2] | ED50 [3] | ED50 [4] | ED50 [8] | ED50 [9] |
| --- | --- | --- | --- | --- | --- | --- | --- | --- | --- |
| – | – | – | O=C(CCCN1CCC(O)(c2ccc(Cl)cc2)CC1)c1ccc(F)cc1 [HALOPERIDOL] | 0.576 mg/kg | 0.077 mg/kg | 1.1 mg/kg | 14.1 mg/kg | – | – |
| – | – | – | CN1CCN(C2=Nc3cc(Cl)ccc3Nc3ccccc32)CC1 [CLOZAPINE] | > 40 mg/kg | – | 12.7 mg/kg | 33.1 mg/kg | – | – |
| 40 nM | 20 nM | 2740 nM | CC1SC(C)(C)C(=O)N1CCCCN1CCN(c2csc3cc(F)ccc23)CC1 (stereo unspecified) | 61.4 mg/kg | 4.7 mg/kg | 5.46 mg/kg | > 20 mg/kg | 2.5 mg/kg | 15.4 mg/kg |
